One test addresses T1, DDR2 (Homo sapiens, UniProt Q16832).
T1 construct: purchased Luceome Biotechnologies, LLC
T1 sequence (Q16832 22-855): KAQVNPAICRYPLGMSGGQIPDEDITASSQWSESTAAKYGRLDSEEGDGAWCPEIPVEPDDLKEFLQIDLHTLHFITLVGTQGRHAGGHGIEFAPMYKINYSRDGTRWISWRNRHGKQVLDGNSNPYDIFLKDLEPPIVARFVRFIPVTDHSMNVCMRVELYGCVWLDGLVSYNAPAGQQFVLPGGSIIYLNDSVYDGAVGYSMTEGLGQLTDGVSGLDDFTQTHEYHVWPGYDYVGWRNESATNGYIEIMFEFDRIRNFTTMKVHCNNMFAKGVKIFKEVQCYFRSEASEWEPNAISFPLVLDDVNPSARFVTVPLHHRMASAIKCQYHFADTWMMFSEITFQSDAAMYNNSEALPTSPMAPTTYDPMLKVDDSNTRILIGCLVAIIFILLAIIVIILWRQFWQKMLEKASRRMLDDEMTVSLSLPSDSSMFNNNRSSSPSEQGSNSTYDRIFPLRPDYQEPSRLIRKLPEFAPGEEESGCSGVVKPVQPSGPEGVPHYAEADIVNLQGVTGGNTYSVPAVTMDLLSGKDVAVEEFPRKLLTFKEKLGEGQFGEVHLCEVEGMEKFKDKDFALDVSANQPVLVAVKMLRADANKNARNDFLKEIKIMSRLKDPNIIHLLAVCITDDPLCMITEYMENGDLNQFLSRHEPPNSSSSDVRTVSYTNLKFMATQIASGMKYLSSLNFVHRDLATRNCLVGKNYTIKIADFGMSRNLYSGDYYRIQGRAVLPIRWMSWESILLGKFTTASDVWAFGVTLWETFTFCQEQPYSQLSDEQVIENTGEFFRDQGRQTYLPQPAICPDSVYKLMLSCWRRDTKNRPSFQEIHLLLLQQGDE
As to the kind of experiment: KINASESEEKER competition binding assay, DDR2. The settings on record: minimum 8-point curve, duplicate. As for the experimental part: Kinase assays were performed using KINASESEEKER™ (Luceome Biotechnologies, LLC; Tucson, AZ). KINASESEEKER™ is a homogeneous competition binding assay in which the displacement of an active site-dependent probe by an inhibitor is measured by a change in luminescence signal. Luminescence readout translates into a highly sensitive and robust assay with low background and minimal interference from test compounds. See J. Am. Chem. Soc., 2010, 132, 11727-11735.
Stock solutions of compounds were serially diluted in DMSO to make assay stocks. Prior to initiating IC50 determination, the test compounds were evaluated for false positives against split-luciferase. The compounds were screened against kinases at a minimum of 8 different concentrations in duplicate. For kinase assays, a 24 μL aliquot of lysate containing Cfluc-kinase and Fos-Nfluc was incubated for 2 hours with either 1 μL of DMSO (for no-inhibitor control) or compound solution in DMSO in presence of a kinase specific probe. 80 μL of luciferin assay reagent was added to each solution and luminescence was immediately measured on a luminometer.
The % Inhibition and % Activity Remaining was calculated using the following equation: […]
The % Activity Remaining was plotted against compound concentration and the IC50 was determined for each compound using a minimum 8-point curve.

The next test addresses T2, KIT (D816H) (Homo sapiens, UniProt P10721, D816H).
T2 construct: purchased Eurofins DiscoverX Corporation
The experiment in a line: KINOMEscan competition binding screen, KIT (D816H). The settings on record: for remaining binding at 10 µM: read-out: % Ctrl @ 10 μM. As for the experimental part:
(§1) The KINOMEscan™ screening platform (Eurofins DiscoverX Corporation, San Diego, USA) was performed using an active site-directed competition binding assay to quantitatively measure interactions between BK40143, BK40197, BK40195, and BK40196 and more than 450 human kinases and disease relevant mutant variants. […] Screening “hits” were identified by measuring the amount of kinase captured in test (BK40143, BK40197, BK40195, and BK40196) versus control samples by using a quantitative and ultra-sensitive qPCR method that detects the associated DNA label. BK40143, BK40197, BK40195, and BK40196 were screened at 10 μM concentration, and results for primary screen binding interactions were reported as ‘% Ctrl’ (POC), where lower numbers indicate stronger hits and calculated as follows:
(§2) [formula] • test compound=BK40143 or BK40197 or BK40195 or BK40196 • negative control=DMSO (100% Ctrl) • positive control=control compound (0% Ctrl)
(§3) Based on screening data of profiled compounds, a proportional relationship between primary screening results and corresponding compound/target affinities can be described as binding constants (Kd values) for the indicated ranges of percent of control (PoC) values, with tighter binding (higher affinity) interactions associated with lower PoC values, and weaker binding (lower affinity) associated with higher PoC values. Briefly, kinase-tagged T7 phage strains were grown in parallel in 24-well blocks in an E. coli host derived from the BL21 strain. E. coli were grown to log-phase and infected with T7 phage from a frozen stock (multiplicity of infection=0.4) and incubated with shaking at 32° C. until lysis (90-150 minutes). The lysates were centrifuged (6,000×g) and filtered ([…]) to remove cell debris. The remaining kinases were produced in HEK-293 cells and subsequently tagged with DNA for qPCR detection. Streptavidin-coated magnetic beads were treated with biotinylated small molecule ligands for 30 minutes at room temperature to generate affinity resins for kinase assays. The liganded beads were blocked with excess biotin and washed with blocking buffer (SeaBlock (Pierce), 1% BSA, 0.05% Tween 20, 1 mM DTT) to remove unbound ligand and to reduce non-specific phage binding. Binding reactions were assembled by combining kinases, liganded affinity beads, and test compounds in 1× binding buffer (20% SeaBlock, 0.17×PBS, 0.05% Tween 20, 6 mM DTT). Test compounds were prepared as 100× stocks in 100% DMSO and directly diluted into the assay. All reactions were performed in polypropylene 384-well plates in a final volume of 0.02 ml. The assay plates were incubated at room temperature with shaking for 1 hour and the affinity beads were washed with wash buffer (1×PBS, 0.05% Tween 20). The beads were then re-suspended in elution buffer (1×PBS, 0.05% Tween 20, 0.5 μM non-biotinylated affinity ligand) and incubated at room temperature with shaking for 30 minutes. The kinase concentration in the eluates was measured by qPCR.

Another test concerns the target T3, KIT (D816V) (Homo sapiens, UniProt P10721, D816V).
T3 construct: purchased Eurofins DiscoverX Corporation
As to the kind of experiment: KINOMEscan competition binding screen, KIT (D816V). The settings on record: for remaining binding at 10 µM: read-out: % Ctrl @ 10 μM. As for the experimental part: as §1, §2, §3

In a further test the target is T4, KIT (V559D) (Homo sapiens, UniProt P10721, V559D).
T4 construct: purchased Eurofins DiscoverX Corporation
T4 sequence (P10721 26-976 V559D): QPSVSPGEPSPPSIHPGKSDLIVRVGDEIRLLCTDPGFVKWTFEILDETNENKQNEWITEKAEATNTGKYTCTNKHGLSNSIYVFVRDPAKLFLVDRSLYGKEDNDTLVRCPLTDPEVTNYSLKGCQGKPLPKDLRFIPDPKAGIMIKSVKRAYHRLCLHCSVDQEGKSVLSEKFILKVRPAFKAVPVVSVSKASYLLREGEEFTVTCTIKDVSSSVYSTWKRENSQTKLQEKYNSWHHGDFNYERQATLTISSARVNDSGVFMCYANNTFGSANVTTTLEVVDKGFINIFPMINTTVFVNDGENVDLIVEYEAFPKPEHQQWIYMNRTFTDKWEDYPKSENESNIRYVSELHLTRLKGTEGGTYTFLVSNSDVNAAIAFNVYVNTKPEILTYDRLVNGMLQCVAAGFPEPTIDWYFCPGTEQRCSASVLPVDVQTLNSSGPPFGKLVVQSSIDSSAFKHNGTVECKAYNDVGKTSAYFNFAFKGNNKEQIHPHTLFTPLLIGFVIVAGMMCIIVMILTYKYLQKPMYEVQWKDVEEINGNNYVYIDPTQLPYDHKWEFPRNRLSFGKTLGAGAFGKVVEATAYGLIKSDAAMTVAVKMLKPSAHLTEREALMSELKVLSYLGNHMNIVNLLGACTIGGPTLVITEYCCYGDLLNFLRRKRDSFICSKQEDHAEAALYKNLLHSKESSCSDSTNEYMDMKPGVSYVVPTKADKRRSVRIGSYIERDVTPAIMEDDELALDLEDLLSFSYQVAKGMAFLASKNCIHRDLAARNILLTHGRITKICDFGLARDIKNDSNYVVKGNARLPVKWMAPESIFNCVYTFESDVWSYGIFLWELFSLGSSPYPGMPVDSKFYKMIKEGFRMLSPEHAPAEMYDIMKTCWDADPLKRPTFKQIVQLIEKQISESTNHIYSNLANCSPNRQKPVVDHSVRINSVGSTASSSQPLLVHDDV
As to the kind of experiment: KINOMEscan competition binding screen, KIT (V559D). The settings on record: for remaining binding at 10 µM: read-out: % Ctrl @ 10 μM. As for the experimental part:
as §1, §2, §3

For another test, the target named is T5, KIT (V559D, T670I) (Homo sapiens, UniProt P10721, T670I/V559D).
T5 construct: purchased Eurofins DiscoverX Corporation
T5 sequence (P10721 26-976 V559D/T670I): as the sequence (P10721 26-976 V559D) above, with T645I counted along it
The experiment in a line: KINOMEscan competition binding screen, KIT (V559D, T670I). Conditions: for remaining binding at 10 µM: read-out: % Ctrl @ 10 μM. As for the experimental part:
as §1, §2, §3

The target in another test is T6, SRC (Homo sapiens, UniProt P12931).
T6 construct: purchased Eurofins DiscoverX Corporation
T6 sequence (P12931 whole entry): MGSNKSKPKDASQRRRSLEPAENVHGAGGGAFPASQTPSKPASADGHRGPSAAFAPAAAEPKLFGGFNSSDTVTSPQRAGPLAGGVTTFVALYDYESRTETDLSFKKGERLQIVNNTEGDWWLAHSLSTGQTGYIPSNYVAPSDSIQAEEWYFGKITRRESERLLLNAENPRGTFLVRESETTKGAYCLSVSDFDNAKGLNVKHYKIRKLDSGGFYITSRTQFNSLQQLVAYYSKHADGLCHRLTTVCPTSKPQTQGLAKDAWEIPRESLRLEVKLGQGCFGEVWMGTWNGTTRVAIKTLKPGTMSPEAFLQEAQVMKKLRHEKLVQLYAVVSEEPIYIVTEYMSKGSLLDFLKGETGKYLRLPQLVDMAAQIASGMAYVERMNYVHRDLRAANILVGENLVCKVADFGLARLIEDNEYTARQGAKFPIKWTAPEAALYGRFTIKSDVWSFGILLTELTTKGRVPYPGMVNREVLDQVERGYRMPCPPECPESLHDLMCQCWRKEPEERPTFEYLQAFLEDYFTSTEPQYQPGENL
As to the kind of experiment: KINOMEscan competition binding screen, SRC. The settings on record: for remaining binding at 10 µM: read-out: % Ctrl @ 10 μM. As for the experimental part: as §1, §2, §3

T3 sequence (P10721 26-976 D816V): as the sequence (P10721 26-976 V559D) above, with D534V, D791V counted along it
T2 sequence (P10721 26-976 D816H): as the sequence (P10721 26-976 V559D) above, with D534V, D791H counted along it

The term IC50 denotes the concentration at which inhibition is half-maximal. A low value points to greater potency in that assay. Broadly, the inhibition is the change of the read-out against control, counted positive when it falls. As for `Cc1cccc(-c2cc3nccc(Nc4ccccc4)c3s2)c1` [BK40143], the IC50 at DDR2 turned out to be 6030 ± 930 nM. The inhibition at 10 µM at KIT (D816H) amounted to 54%; at KIT (D816V), 65%; on KIT (V559D), 99.8%; at KIT (V559D, T670I) it was 81%; on SRC it was 94.7%. The remaining binding at 10 µM is 46% at KIT (D816H); 35% on KIT (D816V); 0.25% at KIT (V559D); 19% at KIT (V559D, T670I); 5.3% on SRC.

On DDR2, `COc1cccc(Nc2ccnc3cc(-c4cccc(C)c4)sc23)c1` [BK40195] yielded a concentration for half-maximal inhibition (IC50) of 1900 ± 260 nM. For the same molecule, the inhibition at 10 µM at KIT (D816H) is 93.9%; at KIT (D816V), 98.3%; on KIT (V559D), 99.8%; on KIT (V559D, T670I), 97.5%; at SRC, 99.7%. In addition, the remaining binding at 10 µM at KIT (D816H) came out at 6.1%; on KIT (D816V), 1.7%; on KIT (V559D), 0.2%; on KIT (V559D, T670I), 2.5%; on SRC, 0.35%.

The molecule `Cc1cccc(-c2cc3nccc(Nc4cccc(O)c4)c3s2)c1` [BK40196] displayed an IC50 on DDR2 of 922 ± 130 nM. Moreover, the inhibition at 10 µM at KIT (D816H) came out at 94.1%; at KIT (D816V), 99.8%; at KIT (V559D) it was 100%; at KIT (V559D, T670I), 97.6%; on SRC, 99.9%. The remaining binding at 10 µM is 3.9% on KIT (D816H); 0.2% at KIT (D816V); 0% on KIT (V559D); 2.4% at KIT (V559D, T670I); 0.1% at SRC.

For the molecule `Cc1cccc(-c2cc3nccc(N4CCOCC4)c3s2)c1` [BK40197], the inhibition at 10 µM came to 0% on KIT (D816H); 33% at KIT (D816V); 99.7% at KIT (V559D); 80% at KIT (V559D, T670I); 19% at SRC. For the same molecule, the remaining binding at 10 µM came out at 100% at KIT (D816H); 67% at KIT (D816V); 0.35% at KIT (V559D); 20% on KIT (V559D, T670I); 81% at SRC.

The values above are taken from patent publication US20240423995A1, “C-KIT INHIBITORS AND USES FOR TREATING AND PREVENTING INFLAMMATORY CONDITIONS” (GEORGETOWN UNIVERSITY, priority 2023, published 2024).
